The results in this text go back to patent US8728797B2, “Yeast membrane protein expression system and its application in drug screening” (priority 2001, dated 2014).

Assay [1] deals with AD-PDR5 (Pdr5p). Description: Disk diffusion assay, AD-PDR5. The assay is classed as cell-based, S. cerevisiae. The settings on record: AD-pABC as negative control, 30° C., 48 h. The method, then: (§1) The cells were spread on CSM-agar plates and exposed to the drugs or chemicals applied to filter disks and incubated at 30° C. for 48 h. The amounts of individual drugs are given in the Materials and Methods section of Example 3. Rhodamine 6G and rhodamine 123 were dissolved in ethanol and the other antifungals were dissolved in DMSO.
(§2) Drug susceptibility was measured using disk assays on CSM-URA plates (containing 1.5% w/v agar). Yeast cells (200 μl ml of 5×10^6 cells/ml) were spread on the plates. 10 μl of drug solution or solvent control were spotted onto sterile Whatman paper disks on the pre-spread plates. The following amounts (nmoles) of drugs were applied to individual disks: fluconazole, 633 (Pfizer Ltd., Sandwich, Kent, United Kingdom); itraconazole, 0.23 (Janssen); miconazole, 0.42 (Janssen); cycloheximide, 0.71 (Sigma); rhodamine 6G, 100 (Sigma, Penrose, Auckland, N. Z.); rhodamine 123, 125 (Sigma); cerulenin 4.5 (Sigma); 5-flucytosine 100 (Sigma); amphotericin B, 97 (E. R. Squibb & Sons, Princeton, N.J.); nystatin 65 (Sigma). Agar plates were incubated at 30° C. for 48 h or until clear growth inhibition zones were visible.
(In general: Agar diffusion results depend on both activity and mobility in agar.)

In assay [2] the test system is AD-CDR1 (Cdr1p). Description: Disk diffusion assay, AD-CDR1. Type of assay: cell-based, S. cerevisiae. The settings on record: AD-pABC as negative control, 30° C., 48 h. Here is the method: as §1, §2
For assay [3], the system named is S. cerevisiae AD1002 (CDR1+). Description: Disk drug susceptibility assay, AD1002 compared with parental strain. The assay is classed as cell-based. The settings on record: drug on filter disks, 30° C., 48 h. The method, then:
S. cerevisiae AD1-8u^− (CDR1−) or AD1002 (CDR1+) cells (5×10^5) seeded in top agar on CSM agar plates (containing uracil for AD1-8u^−) were exposed to drugs or chemicals applied to filter disks and incubated at 30° C. for 48 h. The sensitivity of AD1002 to drugs or chemicals was unaffected by supplementing the medium with uridine (0.02% w/v). Amounts of individual drugs applied to disks are given in the Materials and methods section of Example 2, below.
Drug susceptibility was measured using disk assays on CSM-URA plates (containing 1.5% w/v agar). Plates were seeded with yeast cells suspended in top agar (5 ml, 10^5 cells/ml). For the uracil-dependent parental strain, agar was supplemented with 0.02% uridine. Five microliters of drug solution or solvent control were spotted onto sterile Whatman paper disks on the top agar. The following amounts (nmoles) of drugs were applied to individual disks: fluconazole, 6.5 (Pfizer Ltd., Sandwich, Kent, United Kingdom); ketoconazole, 0.094 (Janssen Research Foundation, Beerse, Belgium); itraconazole, 0.35 (Janssen); miconazole, 0.084 (Janssen); amphotericin B, 54 (E. R. Squibb & Sons, Princeton, N.J.); rhodamine 6G, 10 (Sigma, Penrose, Auckland, N. Z.); rhodamine 123, 50 (Sigma); trifluoperazine 100 (Sigma); benomyl, 10 (Nippon Roche); cycloheximide, 5 (Sigma); carbonyl cyanide p-chlorophenylhydrazone, 490 (CCCP, Sigma); oligomycin, 10 (Sigma); nigericin, 100 (Sigma); tamoxifen, 25 (Sigma); naftifine, 50 (Novartis); quinidine, 500 (Sigma); valinomycin, 20 (Sigma); verapamil, 1000 (Sigma). Agar plates were incubated at 30° C. for 48 h or until clear growth inhibition zones were visible.

Assay [4] has as its system AD-ERG11 (Erg11p). Description: Disk diffusion assay, AD-ERG11. The assay is classed as cell-based, S. cerevisiae. The settings on record: AD-pABC as negative control, 30° C., 48 h. The method, then: as §1, §2
In assay [5] the test system is AD-BEN^R (Ben^Rp). The experiment in a line: Disk diffusion assay, AD-BEN^R. Type of assay: cell-based, S. cerevisiae. The settings on record: AD-pABC as negative control, 30° C., 48 h. Here is the method: as §1, §2

For `C[C@@H]1[C@H](O)[C@@H](C)/C=C/C=C/C=C/C=C/C=C/C=C/C=C/[C@H](O[C@@H]2O[C@H](C)[C@@H](O)[C@H](N)[C@@H]2O)C[C@@H]2O[C@](O)(C[C@@H](O)C[C@@H](O)[C@H](O)CC[C@@H](O)C[C@@H](O)CC(=O)O[C@H]1C)C[C@H](O)[C@H]2C(=O)O` [amphotericin B], the “resistance/sensitivity in disk diffusion assay” value (from here on “resistance/sensitivity”) in assay [1] and in assay [2] was “sensitivities” each time. Further, the “resistance of AD1002 relative to parental strain in disk assay” value in assay [3] (listed as Amphotericin B) is given as “toxicity in yeast was not modified”.
Take `C/C=C/C/C=C/CCC(=O)[C@H]1O[C@H]1C(N)=O` [cerulenin]: the “resistance/sensitivity” value in assay [4] is listed as “susceptible”; in assay [5], “resistant”.
With `C[C@@H]1C[C@@H]([C@H](O)CC2CC(=O)NC(=O)C2)C(=O)[C@@H](C)C1` [cycloheximide], the “resistance/sensitivity” value in assay [4] is listed as “susceptible”; in assay [1] it was “resistances”; in assay [5], “resistant”; in assay [2], “resistances”. Moreover, the “resistance of AD1002 relative to parental strain in disk assay” value in assay [3] is recorded as “confers resistance to growth inhibition”.
Turning to `Nc1[nH]c(=O)ncc1F` [flucytosine], the “resistance/sensitivity” value in assay [4] is recorded as “susceptible”; in assay [1], “sensitivities”; in assay [5], “sensitive”; in assay [2], “sensitivities”.
As to `Clc1ccc(COC(Cn2ccnc2)c2ccc(Cl)cc2Cl)c(Cl)c1` (centres unmarked) [miconazole], the “resistance/sensitivity” value is reported as “some resistance” in assay [4], “resistances” in assay [1], “detectable resistance” in assay [5] and “resistances” in assay [2].
With `CN(C/C=C/c1ccccc1)Cc1cccc2ccccc12` [naftifine], the “resistance of AD1002 relative to parental strain in disk assay” value in assay [3] was “cross-resistance”.
Same read-out and setting: for `CO[C@@H]1C[C@@H](C[C@H]2CC[C@H](C)[C@H]([C@@H](C)C(=O)O)O2)O[C@]2(O[C@](C)([C@H]3CC[C@@](C)([C@@H]4O[C@@H]([C@H]5O[C@@](O)(CO)[C@H](C)C[C@@H]5C)C[C@@H]4C)O3)C[C@H]2C)[C@@H]1C` [nigericin] the value was “confers resistance to growth inhibition”.
Consider `C[C@@H]1[C@H](O)[C@@H](C)/C=C/C=C/CC/C=C/C=C/C=C/C=C/C(O[C@H]2O[C@H](C)[C@@H](O)[C@H](N)[C@@H]2O)CC2O[C@](O)(CC(O)C(O)CCC(O)CC(O)CC(O)CC(=O)O[C@H]1C)CC(O)C2C(=O)O` (some centres unmarked) [nystatin], for which the “resistance/sensitivity” value in assay [1] and in assay [2] was “sensitivities” throughout.
As for `CC/C(=C(\c1ccccc1)c1ccc(OCCN(C)C)cc1)c1ccccc1` [tamoxifen], in assay [3], the “resistance of AD1002 relative to parental strain in disk assay” value was “confers resistance to growth inhibition”.
Same read-out and setting: for `CN1CCN(CCCN2c3ccccc3Sc3ccc(C(F)(F)F)cc32)CC1` [trifluoperazine] the value was “confers resistance to growth inhibition”; for `COc1ccc(CCN(C)CCCC(C#N)(c2ccc(OC)c(OC)c2)C(C)C)cc1OC` (centres unmarked) [verapamil], “confers resistance to growth inhibition”.
On to rhodamine 6G, for which the “resistance/sensitivity” value in assay [4] is on record as “susceptible”; in assay [1] it was “resistances”; in assay [5], “fully sensitive”; in assay [2], “resistances”. Further, in assay [3], the “resistance of AD1002 relative to parental strain in disk assay” value is reported as “clear resistance”.
Take rhodamine 123: the “resistance/sensitivity” value was “susceptible” in assay [4], “resistances” in assay [1], “fully sensitive” in assay [5] and “resistances” in assay [2]. Moreover, the “resistance of AD1002 relative to parental strain in disk assay” value in assay [3] was “clear resistance”.
